# From US20250115597A1, “TYK2 INHIBITORS AND COMPOSITIONS AND METHODS THEREOF” (LYNK PHARMACEUTICALS CO. LTD., priority 2021, published 2025)
# Read-outs that look alike come from different tables or passages of the source.
# Legend:
# TYK2-JH2 domain = target: T1, TYK2-JH2 domain (Homo sapiens, UniProt P29597); assay: Binding activity test for JH2 domain of TYK2 (Tb-antibody/tracer FRET)
# T1 construct: IC50 on JH2 domain activity (nM)
# In short: (§1)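 FRET read-out after 60 min at 25° C plus overnight at 4° C; tracer displacement detected via Tb-labelled antibody on the JH2 domain. Dose-response used 11 points at 3-fold dilution.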
# JAK1 = target: T2, JAK1 (Homo sapiens, UniProt P23458); assay: JAK1 kinase activity, microfluidic assay (Caliper EZ Reader II); format: biochemical; details: JAK1 5 nM, 1 mM ATP
# T2 construct: purchased Carna Biosciences
# T2 sequence (P23458 whole entry): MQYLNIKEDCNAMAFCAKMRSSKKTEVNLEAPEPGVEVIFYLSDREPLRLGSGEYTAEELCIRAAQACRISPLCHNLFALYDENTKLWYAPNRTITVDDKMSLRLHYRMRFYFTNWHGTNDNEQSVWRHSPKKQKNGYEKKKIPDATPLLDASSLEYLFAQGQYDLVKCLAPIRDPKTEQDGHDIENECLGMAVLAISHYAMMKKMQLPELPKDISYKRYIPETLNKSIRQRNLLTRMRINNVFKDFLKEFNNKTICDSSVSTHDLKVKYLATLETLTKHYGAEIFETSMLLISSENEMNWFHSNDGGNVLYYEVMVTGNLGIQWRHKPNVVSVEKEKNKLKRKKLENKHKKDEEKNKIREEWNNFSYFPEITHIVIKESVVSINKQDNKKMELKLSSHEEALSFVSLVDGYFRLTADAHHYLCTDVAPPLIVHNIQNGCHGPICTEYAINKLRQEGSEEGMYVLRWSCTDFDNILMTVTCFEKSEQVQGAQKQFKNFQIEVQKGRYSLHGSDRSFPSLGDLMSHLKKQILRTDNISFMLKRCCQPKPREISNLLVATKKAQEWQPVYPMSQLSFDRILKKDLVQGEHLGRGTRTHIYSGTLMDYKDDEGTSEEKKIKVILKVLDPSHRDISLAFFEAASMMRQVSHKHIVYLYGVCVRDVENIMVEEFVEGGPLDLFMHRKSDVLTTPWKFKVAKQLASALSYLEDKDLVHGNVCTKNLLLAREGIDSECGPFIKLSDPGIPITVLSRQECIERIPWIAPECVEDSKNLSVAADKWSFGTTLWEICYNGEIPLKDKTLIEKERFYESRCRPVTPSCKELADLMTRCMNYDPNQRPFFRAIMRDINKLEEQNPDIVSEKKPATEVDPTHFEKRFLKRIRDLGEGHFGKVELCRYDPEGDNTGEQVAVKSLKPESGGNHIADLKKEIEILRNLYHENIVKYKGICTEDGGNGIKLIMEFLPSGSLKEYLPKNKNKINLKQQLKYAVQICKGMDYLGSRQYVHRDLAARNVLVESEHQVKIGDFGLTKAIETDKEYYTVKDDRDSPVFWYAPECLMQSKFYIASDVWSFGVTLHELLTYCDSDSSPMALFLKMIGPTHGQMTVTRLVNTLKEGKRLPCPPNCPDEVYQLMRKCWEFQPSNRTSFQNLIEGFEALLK
# Method: (§2) Testing for JAK1, JAK2 and TYK2 Kinase Activities
# (§3) JAK activity was determined in the reaction buffer 50 mM HEPES, 0.01% Brij35, 10 mM MgCl2, 2 mM DTT by a microfluidic assay. The phosphorylation of a FAM labeled peptide substrate was monitored in the Caliper EZ Reader II (Perkin Elmer). The assay condition for each batch of enzyme (Carna Biosciences) was optimized to obtain 10% conversion rate of peptide substrate.
# (§4) The test compounds were dissolved in DMSO to a stock concentration of 10 mM. Three-fold serially diluted compounds with top concentration of 5 μM were pre-incubated with JAK1, JAK2 or TYK2 for 10 min at ambient temperature. The final DMSO concentration of assay mixture was 1%. […] The reaction was stopped by adding 50 mM EDTA.
# (§5) The percent inhibition was calculated by the following formula:
# (§6) [formula] • wherein • Conversion %_max=the conversion rate in the positive well without addition of compound • Conversion %_sample=the conversion rate of test compounds • Conversion %_min=the conversion rate in the well without addition of enzyme
# (§7) The dose-response (percent inhibition) curve was plotted and IC50 values were determined by GraphPad software.
# JAK2 = target: T3, JAK2 (Homo sapiens, UniProt O60674); assay: JAK2 kinase activity, microfluidic assay (Caliper EZ Reader II); format: biochemical; details: JAK2 0.125 nM, 1 mM ATP
# T3 construct: purchased Carna Biosciences
# T3 sequence (O60674 whole entry): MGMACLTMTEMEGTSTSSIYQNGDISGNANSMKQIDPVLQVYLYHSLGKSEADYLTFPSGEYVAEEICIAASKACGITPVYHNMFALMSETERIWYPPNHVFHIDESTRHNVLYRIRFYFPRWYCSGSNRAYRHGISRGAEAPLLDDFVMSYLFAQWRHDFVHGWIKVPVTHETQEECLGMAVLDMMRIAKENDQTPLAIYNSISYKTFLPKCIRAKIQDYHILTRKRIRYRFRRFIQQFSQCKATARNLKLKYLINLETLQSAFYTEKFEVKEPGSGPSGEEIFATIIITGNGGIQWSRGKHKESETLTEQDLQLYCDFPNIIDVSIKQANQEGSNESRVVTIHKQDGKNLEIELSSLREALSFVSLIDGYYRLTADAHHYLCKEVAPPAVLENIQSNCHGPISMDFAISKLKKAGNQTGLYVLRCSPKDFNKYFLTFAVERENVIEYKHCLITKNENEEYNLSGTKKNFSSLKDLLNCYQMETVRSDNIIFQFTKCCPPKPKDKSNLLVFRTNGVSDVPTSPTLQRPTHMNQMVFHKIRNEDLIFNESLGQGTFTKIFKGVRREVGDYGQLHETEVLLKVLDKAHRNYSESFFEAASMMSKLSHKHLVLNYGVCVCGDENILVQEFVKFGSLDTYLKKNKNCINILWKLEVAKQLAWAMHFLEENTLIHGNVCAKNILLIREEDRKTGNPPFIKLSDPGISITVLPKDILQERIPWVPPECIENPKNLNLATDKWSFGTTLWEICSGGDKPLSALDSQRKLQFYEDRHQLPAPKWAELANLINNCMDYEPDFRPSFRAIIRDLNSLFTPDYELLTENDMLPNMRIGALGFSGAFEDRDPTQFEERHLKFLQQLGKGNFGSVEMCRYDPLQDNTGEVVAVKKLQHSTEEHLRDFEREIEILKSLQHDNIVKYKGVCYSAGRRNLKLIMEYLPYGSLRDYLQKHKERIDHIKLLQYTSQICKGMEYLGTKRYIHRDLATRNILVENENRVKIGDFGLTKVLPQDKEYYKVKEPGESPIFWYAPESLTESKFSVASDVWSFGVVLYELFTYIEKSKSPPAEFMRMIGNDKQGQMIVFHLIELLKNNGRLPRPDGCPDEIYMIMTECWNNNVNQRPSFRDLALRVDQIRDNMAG
# Method: as §2, §3, §4, §5, §6, §7
# TYK2 = target: T4, TYK2 (Homo sapiens, UniProt P29597); assay: TYK2 kinase activity, microfluidic assay (Caliper EZ Reader II); format: biochemical; details: TYK2 1 nM, 1 mM ATP
# T4 construct: purchased Carna Biosciences
# T4 sequence (P29597 whole entry): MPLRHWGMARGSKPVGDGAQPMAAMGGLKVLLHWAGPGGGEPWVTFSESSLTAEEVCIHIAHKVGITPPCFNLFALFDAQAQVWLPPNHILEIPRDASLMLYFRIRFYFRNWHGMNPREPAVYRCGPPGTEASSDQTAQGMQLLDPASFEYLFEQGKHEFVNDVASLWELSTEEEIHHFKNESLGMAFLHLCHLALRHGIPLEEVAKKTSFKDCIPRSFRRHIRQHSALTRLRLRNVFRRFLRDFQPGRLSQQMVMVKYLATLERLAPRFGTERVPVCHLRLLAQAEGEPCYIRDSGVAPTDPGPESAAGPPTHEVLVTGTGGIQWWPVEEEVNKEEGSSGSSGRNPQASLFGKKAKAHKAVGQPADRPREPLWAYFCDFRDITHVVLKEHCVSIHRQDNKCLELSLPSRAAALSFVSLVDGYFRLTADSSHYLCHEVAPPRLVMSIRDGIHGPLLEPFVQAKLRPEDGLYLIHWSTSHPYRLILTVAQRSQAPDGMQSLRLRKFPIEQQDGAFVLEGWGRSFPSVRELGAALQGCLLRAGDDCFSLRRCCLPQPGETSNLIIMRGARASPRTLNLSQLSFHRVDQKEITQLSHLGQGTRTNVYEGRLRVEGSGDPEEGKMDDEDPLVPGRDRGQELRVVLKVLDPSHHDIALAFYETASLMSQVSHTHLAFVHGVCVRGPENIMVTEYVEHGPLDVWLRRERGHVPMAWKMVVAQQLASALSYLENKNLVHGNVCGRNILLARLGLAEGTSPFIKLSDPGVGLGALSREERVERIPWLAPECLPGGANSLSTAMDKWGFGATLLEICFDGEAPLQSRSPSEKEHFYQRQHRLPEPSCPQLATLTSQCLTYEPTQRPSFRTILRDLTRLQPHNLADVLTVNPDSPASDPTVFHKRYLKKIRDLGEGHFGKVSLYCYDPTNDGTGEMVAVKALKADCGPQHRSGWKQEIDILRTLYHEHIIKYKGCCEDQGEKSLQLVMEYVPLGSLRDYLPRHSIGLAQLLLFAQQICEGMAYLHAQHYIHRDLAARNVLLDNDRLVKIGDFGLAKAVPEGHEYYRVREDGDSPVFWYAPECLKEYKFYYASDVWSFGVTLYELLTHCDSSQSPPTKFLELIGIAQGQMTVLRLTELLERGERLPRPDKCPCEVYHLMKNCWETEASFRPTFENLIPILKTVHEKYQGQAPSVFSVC
# Method: as §2, §3, §4, §5, §6, §7
# [1] = target: T5, Ba/F3-FL-TYK2-P760L cells (Homo sapiens, UniProt P29597, P760L, cells depend on it); assay: Anti-proliferative assay, Ba/F3-FL-TYK2-P760L cells (Cell-Titer Glo); format: cell-based; details: 72 h, read-out: BaF3-FL-T2P760L IC50
# T5 construct: BaF3-FL-T2P760L (nM)
# T5 sequence (P29597 whole entry P760L): as the sequence (P29597 whole entry) above, with P760L counted along it
# In short: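 Compound exposure ran 72 h at 37 °C in 5% CO2 across nine 3-fold concentrations from a 20 μM top dose, added 24 h after seeding 2000 cells/well.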
# Ba/F3-TEL-TYK2 cells = target: T6, Ba/F3-TEL-TYK2 cells (Homo sapiens, UniProt P29597); assay: Anti-proliferative assay, Ba/F3-TEL-TYK2 cells (Cell-Titer Glo); format: cell-based; details: 72 h, read-out: BaF3-TEL-TYK2 IC50
# T6 construct: fused on or other part: Dimerization domain of TEL (ETV6) fused to the TYK2 kinase domain; P41212 (Transcription factor ETV6)
# T6 sequence (P29597 whole entry, change not shown, the tested form may be a part): as the sequence (P29597 whole entry) above
# Method: Anti-Proliferative Assay Dimerization domain of Tel protein fused with JAK kinase domain was permanently transduced into Ba/F3 cells, whose proliferation is dependent on JAK activity in the absence of IL-3 induction. These engineered Ba/F3 cells (Ba/F3-FL-TYK2-[…], Ba/F3-TEL-TYK2 and Ba/F3-TEL-JAK2) were used to monitor JAK inhibitory activities of the compounds in the cellular. […] Cells were seeded at 2000/well of white flat bottom 96-well plates. The well containing medium only was used as background control. After 24 h growth, cells were treated with compounds. The test compounds were dissolved in DMSO to a stock concentration of 20 mM. 3-fold serially diluted compounds for 9 concentrations with top concentration of 20 μM was added into the each well. […] The cells continued to grow at 37° C. in 5% CO2 for 72 h after compound treatment. The viability was measured by cellular ATP determination using the Cell-Titer Glo luciferase reagent (Promega). The Luminescence value was recorded by a multi-label reader Envision (PerkinElmer).
# [2] = Microsomal metabolic stability assay; format: in vitro ADME; details: pH 7.4, 0.5 mg/mL protein, 1 μM compound
# In short: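 Parent loss was tracked by LC/MS/MS at 0, 5, 15, 30 and 45 min, with half-life derived from the ln(% remaining)–time slope. Incubation at 37 °C, pH 7.4 phosphate/EDTA buffer: 0.5 mg/mL microsomes, 1 μM compound, NADPH-regenerated (2 mM).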
# Kinetic solubility = format: physicochemical; details: phosphate buffer, aqueous buffer, kinetic from dmso stock, PBS (pH 7.4), 1% DMSO, room temperature
# Method: Aliquots of 8 μL of reference and test compound stock solutions (10 mM/5 mM) are added into 792 μL of 100 mM pH 7.4 phosphate buffer. The final DMSO concentration is 1%. Sample tubes are shaken for 2 hours at 1000 rpm at room temperature. Samples are centrifuged at 12000 rpm for 10 min to precipitate un-dissolved particles. And transfer the supernatants to a new tube or plate. Add 5 μL of samples (no diluted, 10 times diluted and 100 times diluted) and standard curve samples to 95 μL of ACN containing IS for LC-MS/MS analysis.
# JAK1-JH2 domain = target: T7, JAK1-JH2 domain (Homo sapiens, UniProt P23458); assay: Binding activity test for JH2 domain of JAK1 (Tb-antibody/tracer FRET)
# T7 construct: IC50 on JH2 domain activity (nM)
# T7 sequence (P23458 583-855 limits assumed): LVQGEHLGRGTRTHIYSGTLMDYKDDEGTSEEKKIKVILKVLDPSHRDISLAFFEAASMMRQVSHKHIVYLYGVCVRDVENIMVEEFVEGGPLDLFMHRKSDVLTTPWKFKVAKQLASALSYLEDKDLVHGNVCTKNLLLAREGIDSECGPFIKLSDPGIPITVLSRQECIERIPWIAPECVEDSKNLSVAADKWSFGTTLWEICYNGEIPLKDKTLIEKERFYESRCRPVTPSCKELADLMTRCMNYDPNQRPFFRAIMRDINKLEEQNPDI
# In short: as §1
# [3] = dog liver microsomes, read-out: Dog LM Clint
# [4] = dog liver microsomes, read-out: Dog LM T½
# [5] = human liver microsomes, read-out: Human LM Clint
# [6] = human liver microsomes, read-out: Human LM T½
# [7] = rat liver microsomes, read-out: Rat LM Clint
# [8] = rat liver microsomes, read-out: Rat LM T½
# T1 sequence (P29597 589-875 limits assumed): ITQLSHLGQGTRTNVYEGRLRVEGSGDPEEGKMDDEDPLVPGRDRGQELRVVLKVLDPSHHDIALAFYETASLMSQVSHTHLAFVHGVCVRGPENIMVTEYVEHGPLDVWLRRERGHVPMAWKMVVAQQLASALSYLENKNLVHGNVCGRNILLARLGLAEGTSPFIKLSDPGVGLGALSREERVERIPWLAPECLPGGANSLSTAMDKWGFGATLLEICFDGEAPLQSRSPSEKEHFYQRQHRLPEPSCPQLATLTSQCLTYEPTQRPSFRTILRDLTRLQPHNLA
IC50 (TYK2-JH2 domain),IC50 (JAK1),IC50 (JAK2),IC50 (TYK2),GI50 [1],GI50 (Ba/F3-TEL-TYK2 cells),"microsomal CLint at 1 μM [2, 3]","half-life at 1 μM [2, 4]","microsomal CLint at 1 μM [2, 5]","half-life at 1 μM [2, 6]","microsomal CLint at 1 μM [2, 7]","half-life at 1 μM [2, 8]",solubility at 2 h (Kinetic solubility),JAK1/TYK2 selectivity (TYK2-JH2 domain; ratio JAK1-JH2 IC50 / TYK2-JH2 IC50),IC50 (JAK1-JH2 domain),Structure (SMILES)
0.202 nM,> 5000 nM,> 5000 nM,> 5000 nM,114 nM,> 10000 nM,47.1 µL/min/mg,73.6 min,128 µL/min/mg,27.1 min,209 µL/min/mg,16.6 min,,,,"CCn1ccc2scc(Nc3cc(NC(=O)C4CC4)ncc3C(=O)NC)c2c1=O [Example 17, 6-(Cyclopropanecarboxamido)-4-((5-ethyl-4-oxo-4,5-dihydrothieno[3,2-c]pyridin-3-yl)amino)-N-methylnicotinamide]"
,> 5000 nM,> 5000 nM,> 5000 nM,861 nM,,,,,,,,,,,"CNC(=O)c1cnc2nc1Nc1cc(cc(-c3ncn(C)n3)c1OC)CN(C)Cc1cccc(c1)N2 [Example 22, 10-Methoxy-N,15-dimethyl-11-(1-methyl-1,2,4-triazol-3-yl)-2,4,8,15,23-pentazatetracyclo[15.3.1.13,7.19,13]tricosa-1(21),3(23),4,6,9,11,13(22),17,19-nonaene-6-carboxamide]"
1.33 nM,,,,62.9 nM,> 20000 nM,21.4 µL/min/mg,64.8 min,80 µL/min/mg,17.3 min,35.8 µL/min/mg,38.7 min,,,,"CCn1ccc2c(c(Nc3cc(NC(=O)C4CC4)nnc3C(=O)NC)cn2C)c1=O [Example 23, 6-(Cyclopropanecarboxamido)-4-((5-ethyl-1-methyl-4-oxo-4,5-dihydro-1H-pyrrolo[3,2-c]pyridin-3-yl)amino)-N-methylpyridazine-3-carboxamide]"
0.48 nM,> 5000 nM,> 5000 nM,> 5000 nM,50.9 nM,> 20000 nM,,,,,,,,,,"CNC(=O)c1nnc(NC(=O)C2CC2)cc1Nc1csc2ccn(C)c(=O)c12 [Example 27, 6-(Cyclopropanecarboxamido)-N-methyl-4-((5-methyl-4-oxo-4,5-dihydrothieno[3,2-c]pyridin-3-yl)amino)pyridazine-3-carboxamide]"
,> 5000 nM,> 5000 nM,> 5000 nM,499 nM,,14.5 µL/min/mg,238 min,26.2 µL/min/mg,132 min,21.8 µL/min/mg,159 min,,,,"CNC(=O)c1cnc2nc1Nc1cc(cc(-c3ncn(C)n3)c1OC)COCc1cccc(c1)N2 [Example 33, 10-Methoxy-N-methyl-11-(1-methyl-1,2,4-triazol-3-yl)-15-oxa-2,4,8,23-tetrazatetracyclo[15.3.1.13,7.19,13]tricosa-1(21),3(23),4,6,9,11,13(22),17,19-nonaene-6-carboxamide]"
,> 5000 nM,> 5000 nM,> 5000 nM,88.1 nM,,,,,,,,,,,"CCN1CCc2scc(Nc3cc(NC(=O)C4CC4)ncc3C(=O)NC)c2C1=O [Example 39, 6-(Cyclopropanecarboxamido)-4-((5-ethyl-4-oxo-4,5,6,7-tetrahydrothieno [3,2-c]pyridin-3-yl)amino)-N-methyl-nicotinamide]"
,,,,111 nM,,< 11.5 µL/min/mg,> 120 min,14.4 µL/min/mg,96.2 min,32.4 µL/min/mg,42.8 min,6.3 µM,,,"CNC(=O)c1nnc(NC(=O)C2CC2)cc1Nc1cn(C)c2ccn(C)c(=O)c12 [Example 49, 6-(Cyclopropanecarboxamido)-4-((1,5-dimethyl-4-oxo-4,5-dihydro-1H-pyrrolo[3,2-c]pyridin-3-yl)amino)-N-methylpyridazine-3-carboxamide]"
,,,,142 nM,,,,,,,,15.2 µM,,,"[2H]C([2H])([2H])NC(=O)c1cnc2cc1Nc1cc(cc(-c3ncn(CC)n3)c1OC)COCc1nc(ccc1F)N2 [Example 85, 11-(1-Ethyl-1H-1,2,4-triazol-3-yl)-18-fluoro-10-methoxy-N-(methyl-d3)-15-oxa-2,4,8,21-tetraazatetracyclo[15.3.1.1^{3,7}.1^{9,13}]tricosa-1(20),3,5,7(23),9,11,13(22),17(21),18-nonaene-6-carboxamide]"
,,,,100 nM,,45 µL/min/mg,30.8 min,57.8 µL/min/mg,24 min,149 µL/min/mg,9.29 min,109 µM,,,"[2H]C([2H])([2H])NC(=O)c1cnc(NC(=O)C2CC2)cc1Nc1ccc2ncn(CC)c2c1OC [Example 167, 6-(Cyclopropanecarboxamido)-4-((1-ethyl-7-methoxy-1H-benzo[d]imidazol-6-yl)amino)-N-(methyl-d3)nicotinamide]"
3.37 nM,,,,124 nM,,21.9 µL/min/mg,63.4 min,26.8 µL/min/mg,51.6 min,72.6 µL/min/mg,19.1 min,17.8 µM,,,"[2H]C([2H])([2H])NC(=O)c1cnc(Nc2ccc(F)cn2)cc1Nc1cn(CCOC)c2ccn(CC)c(=O)c12 [Example 192, 4-((5-Ethyl-1-(2-methoxyethyl)-4-oxo-4,5-dihydro-1H-pyrrolo[3,2-c]pyridin-3-yl)amino)-6-((5-fluoropyridin-2-yl)amino)-N-(methyl-d3)nicotinamide]"
2.86 nM,,,,1260 nM,,,,,,,,33.9 µM,,,[2H]C([2H])([2H])NC(=O)c1cnc(Nc2ccn(C)n2)cc1Nc1nn(C)c2ccn(CC)c(=O)c12 [Example 219]
0.782 nM,,,,357 nM,,,,,,,,47.4 µM,32.5,25.4 nM,"[2H]C([2H])([2H])NC(=O)c1cnc(NC(=O)C2CC2)cc1Nc1ccc2cnn(C(C)C#N)c2c1OC (centres unmarked) [Example 249, 4-((1-(1-Cyanoethyl)-7-methoxy-1H-indazol-6-yl)amino)-6-(cyclopropanecarboxamido)-N-(methyl-d3)nicotinamide]"
